PMC11489206, “Transport of perfluoroalkyl substances across human induced pluripotent stem cell-derived intestinal epithelial cells in comparison with primary human intestinal epithelial cells and Caco-2 cells” (Archives of Toxicology, 2024)
Read-outs that look alike come from different tables or passages of the source. Marks after values point to notes of the source that are not given here. Values belong to the molecule of their own block, whether it stands above or below them.

What was measured:
[1] = ref Ayehunie et al. (2005); cited from earlier work
[2] = Transport study across EpiIntestinal microtissues; conditions: human
Experimental: The human EpiIntestinal small intestinal microtissues, consisting of epithelial cells and an underlying lamina propria containing intestinal fibroblasts, were obtained from MatTek Life Sciences (Ashland, USA). Cell culture inserts (8.8 mm ID) were placed in 12-well plates and cells were maintained in 100 µl maintenance medium (MatTek Life Sciences) in the apical compartment and 5 ml maintenance medium in the basolateral compartment upon arrival. The transport studies were performed 1 day after arrival.
(§1) Transport studies were performed in Caco-2 cells, hiPSC-derived IECs and EpiIntestinal microtissues. To that end, Caco-2 cell layers were differentiated for 21 days and hiPSCs were differentiated into IEC layers for 26 days, as described above. EpiIntestinal microtissues were subjected to transport studies 1 day after arrival. […] For all models, PFAS transport was assessed in apical to basolateral, and basolateral to apical direction using HBSS containing a mixture of PFASs containing 1 µM of each PFAS. See Supplementary Data for a detailed description of the method used for the transport studies of the model compounds and PFASs.
(§2) Prior to exposure to the transport study compounds, the cells were washed with transport medium (HBSS; Sigma). […] 100 µL aliquots were collected from the basolateral compartment and replaced with the same volume HBSS at settled time points (0, 15, 30 and 60 min). For basolateral to apical transport in the EpiIntestinal microtissues, 0.2 mL HBSS was added to the apical compartment and 0.5 mL HBSS containing a mixture of PFASs containing 1 µM of each PFAS, was added to the basolateral compartment. 100 µL aliquots were collected from the apical compartment and replaced with the same volume of HBSS at settled time points (0, 15, 30 and 60 min). For apical to basolateral transport across the Caco-2 cell layers and hiPSC-derived IEC layers, 1.2 mL HBSS was added to the basolateral compartment and 0.4 mL HBSS containing either model compounds (10 µM) or a mixture of PFASs containing 1 µM of each PFAS, was added to the apical compartment. 100 µL aliquots were collected from the basolateral compartment and replaced with the same volume of HBSS at settled time points (0, 7.5, 15, 30 and 60 min for the model compounds with both models and the PFASs with the hiPSC-derived IEC layers and 0, 15, 30 and 60 min for PFASs with the Caco-2 cell layers). For basolateral to apical transport, 0.4 mL HBSS was added to the apical compartment and 1.2 mL HBSS containing 10 µM of the model compounds or a mixture of PFASs containing 1 µM of each PFAS, was added to the basolateral compartment. 100 µL aliquots were collected from the apical compartment and replaced with the same volume of HBSS at settled time points (0, 7.5, 15, 30 and 60 min for the model compounds with both models and the PFASs with the hiPSC-derived IEC layers and 0, 15, 30 and 60 min for PFASs with the Caco-2 cell layers). After 60 minutes, all liquid was collected from the apical and basolateral compartment and the cells were lysed in 200 µL RIPA buffer (Thermo Fisher Scientific), and chemicals were quantified in the different compartments (apical, basolateral and cells) in order to calculate the mass balance.
(§3) The apparent permeability coefficient (Papp, cm/s) was calculated using the following equation: […]
where A is the surface area (cm^2), dQ is the amount of the compound transported (nmol) over the respective time interval dt (s) and C0 is the initial concentration in the donor compartment (µM).

[3] = Transport study across hiPSC-derived IEC layers; conditions: human
Experimental: For differentiation into IECs, definitive endoderm cells were subsequently differentiated into intestinal stem cells by changing medium into DMEM/F12 containing 2% fetal bovine serum, 1% GlutaMAX (Gibco) and 250 ng/ml FGF2 (R&D Systems). After 4 days, cells were dissociated using Accutase and seeded onto polyester Transwell inserts (0.4 µm, Corning) coated with Growth Factor Reduced Matrigel #356231. Cells were cultured for 7 days in intestinal differentiation medium (DMEM/F-12 containing 2% fetal bovine serum, 1% non-essential amino acids (Gibco), 1 × B27 (Gibco), 1 × N2 (Gibco), 1% penicillin/streptomycin (Gibco) and 2 mM L-glutamine (Gibco)) supplemented with 20 ng/ml EGF (R&D Systems) and 30 µM Forskolin (Sigma). ROCK inhibitor, y-27632 (final concentration 10 µM; Stem Cell Technologies), was added during the initial 24 h after seeding to reduce cell death. The cells were subsequently cultured for 12 days in intestinal differentiation medium supplemented with 20 ng/ml EGF, 30 µM Forskolin, 5 µM 5-aza-2′-deoxycytidine (Sigma), 20 µM PD98059 (Stem Cell Technologies) and 0.5 µM A-83–01 (Sigma). The medium was refreshed every 2–3 days. Barrier integrity was determined by measuring apical to basolateral translocation of Lucifer yellow (see Supplementary Data for a detailed description).
as §1
as §2, with “layers).” for “layers). After 60 minutes, all liquid was collected from the apical and basolateral compartment and the cells were lysed in 200 µL RIPA buffer (Thermo Fisher Scientific), and chemicals were quantified in the different compartments (apical, basolateral and cells) in order to calculate the mass balance.”

[4] = Transport study across Caco-2 cell layers; conditions: human, Caco-2
Experimental: Human colorectal adenocarcinoma cells (Caco-2, HTB-37) were obtained from American Type Culture Collection (ATCC, Manassas, VA). Cells were cultured in a humidified incubator (37°C, 5% CO2) in Dulbecco’s modified Eagle’s medium (DMEM) supplemented with 10% heat-inactivated fetal bovine serum (Gibco, Thermo Fisher Scientific, Waltham, MA), 1% non-essential amino acids (Gibco) and 1% penicillin/streptomycin (Sigma). For experiments, Caco-2 cells below passage number 50 were used within 10 passages. They were harvested at 80% confluence using Trypsin/EDTA (0.25%/0.05%; PAN Biotech, Aidenbach, Germany) and seeded at a density of 4 × 10^5 cells/cm^2 into inserts with a polycarbonate membrane (0.4 µm pore, Corning, New York, NY). After 21 days of differentiation (using 500 µl cell culture medium in the apical and 1500 µl in the basolateral compartment), monolayer integrity was determined by measuring transepithelial electrical resistance (TEER) with a Millicell ERS Volt-Ohm meter (Millipore, Bedford, MA).
as §1, §2, §3

EpiIntestinal model = conditions: apical to basolateral, ref Ayehunie et al. (2005); cited from earlier work
Caco-2 model = conditions: cited from earlier work

Structure (SMILES): CC(C)NCC(O)COc1ccc(CC(N)=O)cc1 (centres unmarked) [Atenolol, atenolol]
Fa (fraction absorbed in humans) [1]: 50%

Structure (SMILES): O=C(O)C(F)(F)C(F)(F)C(F)(F)C(F)(F)C(F)(F)C(F)(F)C(F)(F)C(F)(F)F [PFNA, perfluorononanoic acid]
Papp A→B at 60 min, 1 µM [2]: 8.48 ± 0.57 ×10⁻⁶ cm/s
Papp B→A at 60 min, 1 µM [2]: 7.51 ± 0.5 ×10⁻⁶ cm/s
efflux ratio at 60 min, 1 µM [2]: 0.89
Papp A→B at 60 min, 1 µM [3]: 1.95 ± 0.27 ×10⁻⁶ cm/s
Papp B→A at 60 min, 1 µM [3]: 2.88 ± 0.28 ×10⁻⁶ cm/s
efflux ratio at 60 min, 1 µM [3]: 1.48
Papp A→B at 60 min, 1 µM [4]: 4.55 ± 0.56 ×10⁻⁶ cm/s
Papp B→A at 60 min, 1 µM [4]: 3.14 ± 0.33 ×10⁻⁶ cm/s
efflux ratio at 60 min, 1 µM [4]: 0.69

Structure (SMILES): O=S(=O)(O)C(F)(F)C(F)(F)C(F)(F)C(F)(F)C(F)(F)C(F)(F)F [PFHxS, perfluorohexane sulfonate]
Papp A→B at 60 min, 1 µM [2]: 12.5 ± 0.78 ×10⁻⁶ cm/s
Papp B→A at 60 min, 1 µM [2]: 14.1 ± 0.67 ×10⁻⁶ cm/s
efflux ratio at 60 min, 1 µM [2]: 1.13
Papp A→B at 60 min, 1 µM [3]: 3.95 ± 0.47 ×10⁻⁶ cm/s
Papp B→A at 60 min, 1 µM [3]: 6.71 ± 0.43 ×10⁻⁶ cm/s
efflux ratio at 60 min, 1 µM [3]: 1.7
Papp A→B at 60 min, 1 µM [4]: 8.78 ± 1.76 ×10⁻⁶ cm/s
Papp B→A at 60 min, 1 µM [4]: 11.6 ± 0.2 ×10⁻⁶ cm/s
efflux ratio at 60 min, 1 µM [4]: 1.33

Papp A→B at 60 min, 10 µM [4]: 17.9 ± 1.39 ×10⁻⁶ cm/s
Papp B→A at 60 min, 10 µM [4]: 24.5 ± 0.94 ×10⁻⁶ cm/s
Structure (SMILES): CC(=O)CC(c1ccccc1)c1c(O)c2ccccc2oc1=O (centres unmarked) [Warfarin, warfarin]
Average Papp A–B (EpiIntestinal model): 36.7 ± 16.8^a × 10^–6 cm/s
Average Papp A - B (Caco-2 model; ref Artursson et al. 1991): 38.3 ×10⁻⁶ cm/s
Average Papp A - B (Caco-2 model; ref Ayehunie et al. 2018): 28.6 ×10⁻⁶ cm/s
Average Papp A - B (Caco-2 model; ref Gschwind et al. 2013): 22.7 ×10⁻⁶ cm/s
Average Papp A - B (Caco-2 model; ref Yazdanian et al. 1998): 21.1 ×10⁻⁶ cm/s

Structure (SMILES): O=C(O)C(F)(F)C(F)(F)C(F)(F)C(F)(F)C(F)(F)C(F)(F)C(F)(F)F [PFOA, perfluorooctanoic acid]
Papp A→B at 60 min, 1 µM [2]: 7.31 ± 0.43 ×10⁻⁶ cm/s
Papp B→A at 60 min, 1 µM [2]: 6.99 ± 0.82 ×10⁻⁶ cm/s
efflux ratio at 60 min, 1 µM [2]: 0.96
Papp A→B at 60 min, 1 µM [3]: 3.27 ± 0.45 ×10⁻⁶ cm/s
Papp B→A at 60 min, 1 µM [3]: 5.3 ± 0.42 ×10⁻⁶ cm/s
efflux ratio at 60 min, 1 µM [3]: 1.62
Papp A→B at 60 min, 1 µM [4]: 4.23 ± 0.41 ×10⁻⁶ cm/s
Papp B→A at 60 min, 1 µM [4]: 5.75 ± 0.97 ×10⁻⁶ cm/s
efflux ratio at 60 min, 1 µM [4]: 1.36
